According to patent US20250215071A1, “Novel Mcl-1 inhibitor and combination of Mcl-1 and a BH3 mimetic, such as a Bcl-2 inhibitor” (NETRIS PHARMA, priority 2022, published 2025):

What was measured:
HCC70 = experiment: Propidium iodide incorporation (Incucyte Zoom) in HCC70 cells with netrin-1 silencing; format: cell-based; conditions: up to 24 hours
Protocol: FIG. 10. Cell death assessment by combining netrin-1 silencing and Navitoclax. To assess cell death, Propidium iodide (PI) incorporation, normalized to cell confluence, was followed in real-time up to 24 hours by Incucyte Zoom technology for scramble (siCTRL), netrin-1 (siNet), scramble (siCTRL) and Navitoclax, netrin-1 (siNet) and Navitoclax.
In addition, breast cancer HCC70 were transfected with scramble (siCTRL) or netrin-1 (siNet) targeting siRNAs. 24 hours after transfection, cells were detached, plated again in 24-well plate and treated with 0.5 µM of the Bcl-2/Bcl-XL/Bcl-w inhibitor Navitoclax (Tse et al, Cancer Res, 2008; Shoemaker et al, Clin Cancer Res, 2008). To assess cell death, propidium iodide (PI) incorporation, normalized to cell confluence, was followed in real-time up to 24 hours by Incucyte Zoom technology.

[1] = cited from earlier work
UNC5B-induced cell death = UNC5B-induced cell death under inhibition of neddylation; format: cell-based
caspase-9 = experiment: UNC5B-induced caspase-9 activity in HeLa UNC5B cells; format: cell-based, Human; conditions: Dox; 18 hours
Protocol: FIG. 5. UNC5B-mediated Mcl-1 degradation induces MOMP and caspase-9 activation. (A): UNC5B over-expression triggers Mitochondrial Outer Membrane Permeabilization (MOMP) in a COMMD2/CRL3 complex-dependent manner. Hela cells were transfected with scramble (siCTRL), COMMD2 (siCOMMD2-1) or RBX1 (siRBX1-1) siRNAs. 24 hours after transfection, cells were treated with Dox and after further 18 hours mitochondrial depolarization quantified by 5′,6,6′-tetrachloro-1,1′,3,3′-tetraethylbenzimi-dazolylcarbocyanine iodide (JC-1) dye staining, using NucleoCounter NC3000 (n=3, **** p<0.0001, ordinary two-way ANOVA with Tukey's multiple comparisons test). Values are given as means±SEM. (B,C,D): Apoptotic cell death induced by UNC5B over-expression requires caspase-9. HeLa UNC5B cells were transfected with scramble (siCTRL) or caspase-9 (siCASP9) siRNAs and 24 hours later treated with the indicated concentrations of Dox. Propidium iodide (PI)-positive cells were assessed in real-time up to 48 hours using Incucyte Zoom instrument (C) (n=[…], Kolmogorov-Smirnov test). DNA fragmentation was assessed by FACS analysis (D) and caspase-3 was measured using caspase-3 fluorometric kit (E), both 18 hours after treatment (n=[…], **** p<0.0001, ordinary two-way ANOVA with Šidák's multiple comparisons test). Values are given as means±SEM. […] HeLa UNC5B cells were treated with Dox and 18 hours later caspase-9 and -8 activities were assessed by fluorometric kit, using specific substrates (n=3, ^nsp>0.05, *p<0.05, Mann-Whitney test, one-tailed). […] 24 hours later, cells were treated with Dox and caspase-9 activity was measured by fluorometric kit (n=3, **** p<0.0001, ordinary two-way ANOVA with Tukey's multiple comparisons test). […] 18 hours after treatment, caspase-9 activity was assessed with the fluorometric kit (n=5, *p<0.05, ** p<0.01, *** p<0.001, **** p<0.0001, ordinary two-way ANOVA with Tukey's multiple comparisons test). […] Cells were then treated with Dox and Mcl-1 protein was evaluated by western blot. […]

SMILES: CC1(C)CCC(c2ccc(Cl)cc2)=C(CN2CCN(c3ccc(C(=O)NS(=O)(=O)c4ccc(N[C@H](CCN5CCOCC5)CSc5ccccc5)c(S(=O)(=O)C(F)(F)F)c4)cc3)CC2)C1 [Navitoclax]
- cell death induction (PI incorporation) (HCC70; 0.5 µM alone (siCTRL)): slight effect on cell death induction
- cell death induction (PI incorporation) (HCC70; 0.5 µM combined with netrin-1 silencing (siNet)): quickly and strongly triggered apoptosis

SMILES: Cc1c(-c2c(-c3ccc(F)o3)sc3ncnc(O[C@H](Cc4ccccc4OCc4ccnn4CC(F)(F)F)C(=O)O)c23)ccc(OCCN2CCN(C)CC2)c1Cl [S63845]
- tolerability ([1]; Brennan et al., 2018): overall good tolerability
- B-cell population ([1]; during treatment (Brennan et al., 2018)): decrease in the B-cell population

SMILES: NS(=O)(=O)OC[C@@H]1C[C@@H](n2ccc3c(N[C@H]4CCc5ccccc54)ncnc32)C[C@@H]1O [pevonedistat]
- UNC5B-induced cell death (UNC5B-induced cell death): prevented UNC5B-induced cell death
- UNC5B-induced caspase-9 activation (caspase-9): sufficient to prevent UNC5B-induced caspase-9 activation
